# According to ChEMBL document CHEMBL5614378, “Novel compounds with dual inhibition activity against SARS-CoV-2 critical enzymes RdRp and human TMPRSS2” (Eur J Med Chem, 2024):
# Active and inactive are the calls of the source. The rule behind the calls is not given here.
# Assays:
# SARS-CoV-2 [1] = type: functional; details: Severe acute respiratory syndrome coronavirus 2, Calu-3, 96 h; dose 15 nM; time 4 day
# [2] = Cytotoxicity against human Calu-3 cells; type: toxicity, cell-based
# SARS-CoV-2 [3] = assay: microbe, parasite or virus in culture; details: Severe acute respiratory syndrome coronavirus 2, NRC-03-nhCoV, Calu-3, 72 h
# Description: Anti-SARS-CoV-2 activity against SARS-CoV-2 NRC-03-nhCoV infected in human Calu-3 cells expressing TMPRSS2 assessed as inhibition of viral replication incubated for 72 hrs by crystal violet staining based analysis
# SARS-CoV-2 [4] = type: functional; details: Severe acute respiratory syndrome coronavirus 2, Calu-3, 96 h; dose 30 nM; time 4 day
# SARS-CoV-2 [5] = assay: microbe, parasite or virus in culture; details: Severe acute respiratory syndrome coronavirus 2, NRC-03-nhCoV, Vero C1008, 72 h
# Description: Anti-SARS-CoV-2 activity against SARS-CoV-2 NRC-03-nhCoV infected in African green monkey Vero E6 cells assessed as inhibition of viral replication incubated for 72 hrs by crystal violet staining based analysis
# in vitro = details: monkey, Vero E6 cells
# Description: Selectivity index, ratio of CC50 for cytotoxicity against African green monkey Vero E6 cells to IC50 for anti-SARS-CoV-2 activity against SARS-CoV-2 NRC-03-nhCoV infected in African green monkey Vero E6 cells
# SARS-CoV-2 [6] = type: functional, Vero E6; details: for inhibition at 10 µg/mL: Severe acute respiratory syndrome coronavirus 2, Vero C1008, 96 h, time 4 day
# SARS-CoV-2 [7] = type: functional, Vero E6; details: for inhibition at 10 µg/mL: Severe acute respiratory syndrome coronavirus 2, Vero C1008, 72 h, time 3 day
# [8] = target: Replicase polyprotein 1ab (Severe acute respiratory syndrome coronavirus 2, UniProt P0DTD1); assay: Inhibition of SARS-CoV-2 recombinant RdRp preincubated with enzyme for 15 mins followed by single stranded polyribonucleotide template and NTPs addition and measured after 2 hrs by fluorescence spectrometric analysis
# SARS-CoV-2 [9] = type: functional, Vero E6; details: Severe acute respiratory syndrome coronavirus 2, Vero C1008, 72 h, time 3 day
# [10] = target: Replicase polyprotein 1ab (Severe acute respiratory syndrome coronavirus 2) (UniProt P0DTD1); assay: Inhibition of SARS-CoV-2 recombinant RdRp at 50 ug/ml preincubated with enzyme for 15 mins followed by single stranded polyribonucleotide template and NTPs addition and measured after 2 hrs by fluorescence spectrometric analysis relative to control; details: dose 50.0 µg/ml, time 135.0 min
Structure (SMILES),IC50 (SARS-CoV-2 [5]) [nM],selectivity ratio (in vitro),IC50 [8] [nM],inhibition at 10 µg/mL (SARS-CoV-2 [9]) [%],inhibition [10] [%],other results
CN(C)C(=O)COC(=O)Cc1ccc(OC(=O)c2ccc(NC(=N)N)cc2)cc1 [CAMOSTAT],–,–,–,–,–,inhibition at 0.015 µM (SARS-CoV-2 [1]): 70%; CC50 [2]: 230 nM; IC50 (SARS-CoV-2 [3]): 8.21 nM; inhibition at 0.03 µM (SARS-CoV-2 [4]): 80%
N=C(N)Nc1ccc(C(=O)Nc2ncnc3[nH]cnc23)cc1,22.8,1,–,–,–,–
O=C(Nc1ccn(C2OC(CO)C(O)C2O)c(=O)n1)c1ccc(Nc2ncccn2)cc1 (stereo unspecified),52,7.18,–,–,–,–
CC(C)c1cc(=O)oc2ccc(OC(=O)c3ccc(NC(=N)N)cc3)cc12,5.7,–,4.42,63.2,89,inhibition at 0.015 µM (SARS-CoV-2 [1]): 45%; inhibition at 10 µg/mL (SARS-CoV-2 [6]): 65%; inhibition at 10 µg/mL (SARS-CoV-2 [7]): 90.5%; CC50 [2]: 450 nM; IC50 (SARS-CoV-2 [3]): 17.5 nM; inhibition at 0.03 µM (SARS-CoV-2 [4]): 60%
CCC(CC)COC(=O)[C@H](C)N[P@](=O)(OC[C@H]1O[C@@](C#N)(c2ccc3c(N)ncnn23)[C@H](O)[C@@H]1O)Oc1ccccc1 [REMDESIVIR],55.6,3.02,–,–,73,–
N#C[C@@]1(c2ccc3c(NC(=O)c4ccc(NC(=N)N)cc4)ncnn23)O[C@H](CO)[C@@H](O)[C@H]1O,3.9,–,6.1,66,91.5,inhibition at 10 µg/mL (SARS-CoV-2 [6]): 44%; inhibition at 10 µg/mL (SARS-CoV-2 [7]): 51.4%
CC(C)(C)OC(=O)Nc1ccc(C(=O)Nc2ncnn3c([C@]4(C#N)O[C@H](CO)[C@@H](O)[C@H]4O)ccc23)cc1,42.2,6.65,–,–,–,–
N#C[C@@]1(c2ccc3c(NC(=O)c4ccc(Nc5ncccn5)cc4)ncnn23)O[C@H](CO)[C@@H](O)[C@H]1O,19.7,2.64,32.4,51.3,77,"inhibition (SARS-CoV-2 [6]; Severe acute respiratory syndrome coronavirus 2, Vero E6, dose 10.0 µg/ml, time 4.0 day): inactive; inhibition (SARS-CoV-2 [7]; Severe acute respiratory syndrome coronavirus 2, Vero E6, dose 10.0 µg/ml, time 3.0 day): inactive"
